Laboratory results reported in ChEMBL document CHEMBL5338755, “Thiophene Carboxamide Analogs with Long Alkyl Chains Comprising Ethylene Glycol Units Inhibit Glioblastoma Cell Proliferation by Activating AMPK” (J Med Chem, 2023).
Calls of active or inactive are those of the source. The rule behind the calls is not given here.

Tests used:
Glioblastoma stem cell [1] = test: Inhibition of cell proliferation of human Glioblastoma stem cell assessed as reduction in viable cell number at 100 to 500 nM measured after 72 hrs by trypan blue exclusion assay; assay type: functional, cell-based; details: dose 100-500 nM
U-251 [2] = test: Synergistic antiproliferative activity against human U-251 cells assessed as combination index at ED50 concentration incubated for 6 days in presence of temozolomide by trypan blue staining based automated cell counter analysis; assay type: functional; details: time 6 day
U-251 [3] = test: Synergistic antiproliferative activity against human U-251 cells assessed as combination index at ED75 concentration incubated for 6 days in presence of temozolomide by trypan blue staining based automated cell counter analysis; assay type: functional; details: time 6 day
Glioblastoma cell line [4] = test: Antitumor activity against human Glioblastoma stem cell xenografted in mouse model assessed as improvement in event-free survival rate at 10 mg/kg, ip administered 3 times in a week for 40 days; assay type: functional, organism-based; details: time 40.0 day
SW48 = test: Antitumor activity against human SW48 cells xenografted in CB-17 SCID mouse assessed as reduction in tumor size at 20 mg/kg administered daily and measured after 3 weeks by vernier caliper method (reference value: 997+/-180 mm3); assay type: functional
U-251 [5] = test: Synergistic antiproliferative activity against human U-251 cells incubated for 6 days in presence of temozolomide by trypan blue staining based automated cell counter analysis; assay type: functional; details: U-251, 144 h, time 6 day, read-out: ED50 (the source's name)
Glioblastoma stem cell [6] = test: Activation of AMPK in human Glioblastoma stem cell assessed as increase in intracellular AMP level at 500 nM measured after 48 hrs by AMP-Glo assay; assay type: cell-based; details: filed as activator
[7] = Toxicity in CB-17 SCID mouse xenografted with human SW48 cells assessed as body weigh loss at 20 mg/kg administered daily and measured after 3 weeks; assay type: organism-based; details: in vivo, 504 h
Glioblastoma stem cell [8] = test: Activation of AMPK in human Glioblastoma stem cell assessed as increase in AMPK phosphorylation level at 500 nM measured after 48 hrs; assay type: cell-based
Glioblastoma stem cell [9] = test: Activation of AMPK in human Glioblastoma stem cell assessed as increase in AMP/ATP ratio at 500 nM measured after 48 hrs; assay type: cell-based; details: filed as activator
[10] = Toxicity in CB-17 SCID mouse xenografted with human SW48 cells assessed as drug tolerance at 20 mg/kg administered daily and measured after 3 weeks; assay type: organism-based; details: in vivo, 504 h
Glioblastoma stem cell [11] = test: Activation of AMPK in human Glioblastoma stem cell assessed as inhibition of cell growth at 500 nM measured after 48 hrs; assay type: cell-based
Glioblastoma cell line [12] = test: Antitumor activity against human Glioblastoma stem cell xenografted in mouse model assessed as suppression of tumor growth by measuring luminescence signals at 10 mg/kg, ip administered 3 times in a week for and measured after 3 weeks by IVIS Lumina XR imaging system; assay type: functional, organism-based
Glioblastoma stem cell [13] = test: Activation of AMPK in human Glioblastoma stem cell assessed as decrease in intracellular ATP level at 500 nM measured after 48 hrs by celltiter-glo luminescent cell viability assay; assay type: cell-based; details: filed as activator
Glioblastoma stem cell [14] = test: Inhibition of cell proliferation of human Glioblastoma stem cell assessed as reduction in viable cell number at 500 nM measured after 72 hrs by trypan blue exclusion assay; assay type: functional, cell-based
[15] = Antiproliferative activity against human Glioblastoma stem cell assessed as reduction in cell count at 100 to 500 nM measured after 72 hrs by trypan blue exclusion assay; assay type: functional; details: dose 100-500 nM

## CCCCCCCCCCOCCOCCOCCOCCCCCCCCCCCCNC(=O)c1ccsc1
Glioblastoma stem cell [1]
  inhibition: Active
U-251 [2]
  CI: 0.325
U-251 [3]
  CI: 0.765
Glioblastoma cell line [4]
  Activity: Active
SW48
  Activity: 352 mm3
U-251 [5]
  EC50: 43 nM
Glioblastoma stem cell [6]
  Activity: Active
[7]
  Activity: Non-Toxic
Glioblastoma stem cell [8]; filed as activator
  Activity: Active
Glioblastoma stem cell [9]
  Activity: Active
[10]
  Activity: Non-Toxic
Glioblastoma stem cell [11]; filed as activator
  Activity: Active
Glioblastoma cell line [12]
  Activity: Active
Glioblastoma stem cell [13]
  Activity: Active

## CCCCCCCCCOCCOCCOCCOCCCCCCCCCCCCNC(=O)c1ccsc1
Glioblastoma stem cell [1]
  inhibition: Active
Glioblastoma stem cell [8]; filed as activator
  Activity: Active
Glioblastoma stem cell [11]; filed as activator
  Activity: Active

## COCCOCCOCCOCCCCCCCCCCCCNC(=O)c1cscc1Br
Glioblastoma stem cell [14]
  inhibition: Active

## COCCOCCOCCOCCCCCCCCCCCCNC(=O)c1cscc1C
Glioblastoma stem cell [1]
  inhibition: inactive

## COCCOCCOCCOCCCCCCCCCCCCNC(=O)c1csc(Br)c1
Glioblastoma stem cell [1]
  inhibition: inactive

## O=C(NCCCCCCCCCCCCOCCOCCOCCO)c1ccsc1
Glioblastoma stem cell [1]
  inhibition: inactive

## COCCOCCOCCOCCCCCCCCCCCCNC(=O)c1csc(C)c1
Glioblastoma stem cell [1]
  inhibition: inactive
Glioblastoma stem cell [8]
  Activity: inactive
Glioblastoma stem cell [11]
  Activity: inactive

## CCCCCCOCCOCCOCCOCCCCCCCCCCCCNC(=O)c1ccsc1
Glioblastoma stem cell [1]
  inhibition: inactive

## CCCCCCCCCCCC[C@@H](O)[C@@H]1CC[C@@H]([C@H](O)CCCCCCCCCCNC(=O)c2ccsc2)O1
U-251 [2]
  CI: 0.972
U-251 [5]
  EC50: 179 nM
[15]
  Activity: 153000

## COCCOCCOCCOCCCCCCCCCCCCNC(=O)c1ccsc1C
Glioblastoma stem cell [1]
  inhibition: inactive

## COCCOCCOCCOCCCCCCCCCCCCNC(=O)c1ccsc1
Glioblastoma stem cell [1]
  inhibition: inactive
Glioblastoma stem cell [14]
  inhibition: Active
[15]
  Activity: 483000

## CCCOCCOCCOCCOCCCCCCCCCCCCNC(=O)c1ccsc1
Glioblastoma stem cell [1]
  inhibition: inactive
Glioblastoma stem cell [14]
  inhibition: Active
